Assay results published in US20260076948A1, “TREATMENT OF DIABETIC RETINOPATHY USING ENDOTHELIN RECEPTOR ANTAGONISTS” (Perfuse Therapeutics, Inc., priority 2019, published 2026).
Entries after “also recorded” stand apart in the source; their conditions may differ.

How the values were obtained:
ETA = target: T1, ETA (Homo sapiens, UniProt P25101); test: Functional potency for ETA receptor; format: biochemical
T1 sequence (P25101 21-427): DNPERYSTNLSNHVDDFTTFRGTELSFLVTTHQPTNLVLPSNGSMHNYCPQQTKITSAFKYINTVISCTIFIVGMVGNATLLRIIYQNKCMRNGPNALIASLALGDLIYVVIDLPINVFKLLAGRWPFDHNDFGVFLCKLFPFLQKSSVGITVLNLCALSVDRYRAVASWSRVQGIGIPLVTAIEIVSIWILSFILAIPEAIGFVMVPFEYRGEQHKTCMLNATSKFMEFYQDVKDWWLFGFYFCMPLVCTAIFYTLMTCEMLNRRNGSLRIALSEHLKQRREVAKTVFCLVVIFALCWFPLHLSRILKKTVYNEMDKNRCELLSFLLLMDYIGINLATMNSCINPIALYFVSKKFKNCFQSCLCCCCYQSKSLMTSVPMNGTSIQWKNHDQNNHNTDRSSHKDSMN
Source text: (§1) In the above table, the physicochemical data, e.g., solubility, were obtained following standard protocols known in the field (see, e.g., Reis et al., Mini Rev Med Chem., 2010, 10(11):1071-6; Avdeef et al., Expert Opin Drug Metab Toxicol., 2005, 1(2):325-42; Bharate et al., Comb Chem High Throughput Screen., 2016, 19(6):461-9; and Jain et al., J Pharm Biomed Anal., 2013, 86:11-35.); and the biochemical data, i.e., potency for ETA/ETB, were obtained following the protocols known in the field (see, e.g., Kirkby et al., Br J Pharmacol., 2008, 153(6):1105-19; and Maguire et al., Br J Pharmacol., 2014, 171(24):5555-72.).

[1] = system: oxygen-induced ischemic retinopathy (OIR); test: Mouse oxygen-induced ischemic retinopathy (OIR), retinal hypoxia area; format: in vivo; conditions: OIR mice, IVT single dose 1 μL of 2 μg/μL; 24, 48, 96 hours
Description: A relevant mice model was used to obtain the retinal hypoxia area in mice with oxygen-induced ischemic retinopathy (OIR) at different time points, as shown in FIG. 4. […] Briefly, at P17, mice with OIR (n=60) were given an injection of ET-1 antagonist (1 μL of 2 μg/μL Edonentan formulation, single dose) in one eye and PBS in the fellow eye. At 24, 48, and 96 hours after injection, mice (n=10 for each time point) were euthanized and the retinas were dissected and stained with GSA lectin and hypoxyprobe. The area of NV, area of retinal hypoxia, and the area of retinal nonperfusion were determined for each retina.

[2] = system: Morrison's rat model of glaucoma (elevated IOP); test: Morrison's rat model of glaucoma (RGC counts, PERG); format: in vivo, Brown Norway rats; conditions: topical eye drops 100 μg per dose, five days a week, four weeks
Source text: Adult male and female retired breeder Brown Norway rats (approximate age groups of 8 to 11 months) were obtained from Envigo (Indianapolis, IN). Baseline IOP measurements and pattern electroretinogram (PERG) amplitudes were collected prior to the surgery for elevation of IOP (to ensure that the IOP and PERG amplitudes were in the expected range of values). IOP was elevated in one eye (left eye) of the rats, while the corresponding right eyes served as contralateral controls. The Morrison method to elevate IOP in rats was carried out by injection of 50 μL. of hypertonic saline through the episcleral veins to sclerose the trabecular meshwork. IOP was measured twice a week throughout the entire duration of the experiment. […] After detecting an elevation of IOP for two consecutive days, topical administration of eye drops (20 μL (100 μg) per dose of the tested compounds in the IOP elevated eye) was commenced and carried out for five days a week for a total of four weeks. In the 4th week of treatment, PERG analysis was carried out and rats were sacrificed by an overdose of pentobarbital (Fatal-Plus). Aqueous humor was collected from the rat eyes, frozen and shipped for analysis. Retinal flat mounts were prepared, immunostained with the RGC marker, Brn3a antibody and surviving RGCs were counted in two eccentricities (central and peripheral).
For this study, the Morrison's model was used to induce ocular hypertension in adult male retired breeder Brown Norway rats as previously described by Morrison et al., (Morrison J C, Moore C G, Deppmeier L M, Gold B G, Meshul C K, Johnson E C. A rat model of chronic pressure-induced optic nerve damage. Exp Eye Res. 1997; 64(1):85-96).
The immunostained retinal flat mounts were obtained to measure the retinal ganglion cell (RGC) counts. To obtain immunostained retinal flat mounts, the animals were euthanized after the treatments and then their eyes were enucleated. The eye cups were fixed overnight at 4° C. in 4% paraformaldehyde (PFA) and retinal flat mounts were prepared for collecting images. The retinal ganglion cell (RGC) counting was conducted using the images of immunostained retinal flat mounts. The images were uploaded to ImageJ, a photo editor designed for biology research (Rasband, 1997-2018) and the labeled retinal ganglion cells were counted manually in two eccentricities (central and peripheral).
Pattern ERG (PERG) was used to assess the RGC function. […] Briefly, PERG signals were acquired from a DTL-plus electrode placed on the lower part of the corneal surface and the PERG waves were analyzed using the EMWIN software (LKC). The difference between the amplitude of the major positive (P1) and negative (N2) waves were calculated to decipher the PERG amplitude.

Stability in solid state = format: physicochemical; conditions: 2 h@125° C.
Source text: as §1

Cc1onc(NS(=O)(=O)c2ccccc2-c2ccc(-c3ncco3)cc2CN(C)C(=O)CC(C)(C)C)c1C [Edonentan, N-[[2′-[[(4,5-dimethyl-3-isoxazolyl)amino]sulfonyl]-4-(2-oxazolyl)[1,1′-biphenyl]-2-yl]methyl]-N,3,3-trimethylbutanamide]
Functional potency for ETA and ETB receptors, rating in words (ETA): High potency
Specificity ETA versus ETB, rating in words (ETA; ETA vs ETB): High specificity
Retinal hypoxia area [1]: improvement of retinal hypoxia; also recorded: improved retinal hypoxia
Pattern electroretinogram (PERG) changes, RGC function [2]: maintained RGC function
Retinal ganglion cell (RGC) counts in the peripheral retina [2]: prevented RGC loss
Stability in Solid State, in words (Stability in solid state): Stable
